Source: ChEMBL document CHEMBL3351775, “Design, synthesis and anti-HIV evaluation of novel diarylnicotinamide derivatives (DANAs) targeting the entrance channel of the NNRTI binding pocket through structure-guided molecular hybridization” (Eur J Med Chem, 2014)
Counter-ions that a name gives are not always drawn.

Assays:
[1] = tested on: Human immunodeficiency virus 1; test: Antiviral activity against HIV1 3B infected in human MT4 cells assessed as inhibition of virus-induced […] after 5 days by MTT assay; assay type: functional, organism-based; settings: Human immunodeficiency virus 1, 3B, MT4, 120 h
[2] = tested on: Human immunodeficiency virus 2; test: Antiviral activity against HIV2 ROD infected in human MT4 cells assessed as inhibition of virus-induced […] after 5 days by MTT assay; assay type: functional, organism-based; settings: Human immunodeficiency virus 2, ISOLATE ROD, MT4, 120 h
[3] = tested on: Human immunodeficiency virus 1; test: Antiviral activity against HIV1 RES056 expressing reverse transcriptase K103N + Y181C mutant infected in human MT4 cells assessed as inhibition of virus-induced […] after 5 days by MTT assay; assay type: functional, organism-based; settings: Human immunodeficiency virus 1, RES056, MT4, 120 h
[4] = Cytotoxicity against mock-infected human MT4 cells after 5 days by MTT assay; assay type: cell-based
[5] = target: Human immunodeficiency virus type 1 reverse transcriptase (Human immunodeficiency virus 1, UniProt Q72547); test: Inhibition of HIV1 reverse transcriptase assessed as reduction in biotin-dUTP incorporation using poly(rA)-oligo(dT) as template/primer and digoxigenin-/biotin-labeled dUTP nucleotides incubated for 1 hr
in vitro = settings: human, MT4 cells, mock-infected (CC50) and HIV1 3B infected (EC50)
Description: Selectivity index, ratio of CC50 for mock-infected human MT4 cells to EC50 for HIV1 3B infected in human MT4 cells

Row | SMILES | EC50 [1] [µM] | EC50 [2] [µM] | EC50 [3] [µM] | CC50 at 120 h [4] [µM] | IC50 [5] [µM] | selectivity ratio (in vitro)
1 | Cc1cc(C#N)cc(C)c1Oc1cc(Nc2ccc(C#N)cc2)ncc1C(=O)NCCN(C)C | > 8.8 | > 7.5 | > 23.2 | 23.2 | 25.8 | ≤ 3
2 | CCCNC(=O)c1cnc(Nc2ccc(C#N)cc2)cc1Oc1c(C)cc(C#N)cc1C | 0.54 | > 170 | > 170 | 170 | 4.14 | 321
3 | COCCNC(=O)c1cnc(Nc2ccc(C#N)cc2)cc1Oc1c(C)cc(C#N)cc1C | 1.74 | > 61 | > 61 | 61 | 11.3 | 35
4 | Cc1cc(C#N)cc(C)c1Oc1cc(Nc2ccc(C#N)cc2)ncc1C(=O)NCC1CC1 | 0.85 | > 146 | > 146 | > 146 | 4.25 | ≥ 175
5 | C#CCNC(=O)c1cnc(Nc2ccc(C#N)cc2)cc1Oc1c(C)cc(C#N)cc1C | 0.24 | > 167 | > 167 | 167 | 1.29 | 703
6 | COC(CNC(=O)c1cnc(Nc2ccc(C#N)cc2)cc1Oc1c(C)cc(C#N)cc1C)OC | 4.54 | > 90.6 | > 90.6 | 90.6 | 11.4 | 20
7 | Cc1cc(C#N)cc(C)c1Oc1cc(Nc2ccc(C#N)cc2)ncc1C(=O)NC1CC1 | 0.31 | > 231 | > 231 | 231 | 3.37 | 784
8 | Cc1cc(C#N)cc(C)c1Oc1cc(Nc2ccc(C#N)cc2)ncc1C(=O)NCC1CCCO1 (stereo unspecified) | 3.1 | > 142 | > 142 | 143 | 10.9 | 46
9 | C=CCNC(=O)c1cnc(Nc2ccc(C#N)cc2)cc1Oc1c(C)cc(C#N)cc1C | 0.24 | > 207 | > 207 | 207 | 2.85 | 625
10 | Cc1cc(C#N)cc(C)c1Oc1cc(Nc2ccc(C#N)cc2)ncc1C(=O)NCCC#N | 0.69 | > 65.8 | > 65.8 | 65.8 | 3.94 | 97
11 | Cc1cc(C#N)cc(C)c1Oc1cc(Nc2ccc(C#N)cc2)ncc1C(N)=O | 0.05 | > 326 | > 326 | > 326 | 0.08 | > 6200
12 | Cc1cc(C)c(Oc2cc(Nc3ccc(C#N)cc3)ncc2C(=O)NCCN(C)C)c(C)c1 | 0.63 | > 16.7 | > 16.7 | 4.67 | 3.45 | 7
13 | CCCNC(=O)c1cnc(Nc2ccc(C#N)cc2)cc1Oc1c(C)cc(C)cc1C | 0.055 | > 11.1 | > 11.2 | 18.9 | 0.32 | 335
14 | COCCNC(=O)c1cnc(Nc2ccc(C#N)cc2)cc1Oc1c(C)cc(C)cc1C | 0.067 | > 24 | 7.8 | 24 | 0.52 | 359
15 | Cc1cc(C)c(Oc2cc(Nc3ccc(C#N)cc3)ncc2C(=O)NCC2CC2)c(C)c1 | 0.11 | > 30.6 | > 30.6 | 30.6 | 0.68 | 264
16 | C#CCNC(=O)c1cnc(Nc2ccc(C#N)cc2)cc1Oc1c(C)cc(C)cc1C | 0.029 | > 73 | 6.1 | 73 | 0.07 | 2470
17 | COC(CNC(=O)c1cnc(Nc2ccc(C#N)cc2)cc1Oc1c(C)cc(C)cc1C)OC | 0.28 | > 23.2 | > 23.2 | 23.2 | 1.89 | 83
18 | Cc1cc(C)c(Oc2cc(Nc3ccc(C#N)cc3)ncc2C(=O)NC2CC2)c(C)c1 | 0.24 | > 25.7 | > 25.8 | 25.8 | 0.23 | 103
19 | Cc1cc(C)c(Oc2cc(Nc3ccc(C#N)cc3)ncc2C(=O)NCC2CCCO2)c(C)c1 (stereo unspecified) | 0.18 | > 274 | > 274 | > 274 | 1.2 | > 1490
20 | C=CCNC(=O)c1cnc(Nc2ccc(C#N)cc2)cc1Oc1c(C)cc(C)cc1C | 0.058 | > 21.5 | 10.1 | 21.3 | 0.17 | 364
21 | Cc1cc(C)c(Oc2cc(Nc3ccc(C#N)cc3)ncc2C(=O)NCCC#N)c(C)c1 | 0.033 | > 9.9 | > 9.89 | 9.89 | 0.19 | 310
22 | Cc1cc(C)c(Oc2cc(Nc3ccc(C#N)cc3)ncc2C(N)=O)c(C)c1 | 0.027 | > 336 | > 336 | > 336 | 0.02 | > 12500
23 | CC(C)Nc1cccnc1N1CCN(C(=O)c2cc3cc(NS(C)(=O)=O)ccc3[nH]2)CC1 [DELAVIRDINE MESYLATE] | 0.66 |  | > 43.8 | > 43.8 |  | > 67
24 | O=c1[nH]cnc2c1ncn2[C@H]1CC[C@@H](CO)O1 [DIDANOSINE] | 23.2 | 44.9 |  | > 212 |  | > 9
25 | O=C1Nc2ccc(Cl)cc2[C@@](C#CC2CC2)(C(F)(F)F)O1 [EFAVIRENZ] | 0.0063 |  |  | > 6.34 |  | 
26 | Cc1cc(C#N)cc(C)c1Oc1nc(Nc2ccc(C#N)cc2)nc(N)c1Br [ETRAVIRINE] | 0.0041 |  | 0.025 | > 4.59 |  | > 1130
27 | Nc1ccn([C@@H]2CS[C@H](CO)O2)c(=O)n1 [LAMIVUDINE] | 2.22 | 8.81 |  | > 87.2 |  | > 39
28 | Cc1ccnc2c1NC(=O)c1cccnc1N2C1CC1 [NEVIRAPINE] | 0.31 |  | > 7.58 | > 15 |  | 
29 | Cc1cn([C@H]2C[C@H](N=[N+]=[N-])[C@@H](CO)O2)c(=O)[nH]c1=O [ZIDOVUDINE] |  | 0.0067 | 0.01 | > 93.5 |  | 
